Article PMC6026185 (Scientific Reports, 2018)
Like-named read-outs stand apart in the source and are kept apart here.

Assays:
[1] = tested on: mNKCC2 isoform F; parameters: method as in ref Payne et al.[57]; Isenring et al.[58]; Plata et al.[59]; Carota et al.[56]; Lykke et al.[60]; Lykke et al.[29]; conditions: Xenopus oocytes; ref Payne et al.[57]; Isenring et al.[58]; Plata et al.[59]; Carota et al.[56]; Lykke et al.[60]; Lykke et al.[29]; read-out: IC50 (µM) NKCC2 (mF); cited from earlier work
[2] = tested on: hNKCC2 isoform B; conditions: Xenopus oocytes; ref Payne et al.[57]; Isenring et al.[58]; Plata et al.[59]; Carota et al.[56]; Lykke et al.[60]; Lykke et al.[29]; read-out: IC50 (µM) NKCC2 (hB); cited from earlier work
[3] = tested on: hNKCC1; conditions: HEK-293 cells; activated state; NKCC1 isoforms not differentiated; ref Payne et al.[57]; Isenring et al.[58]; Plata et al.[59]; Carota et al.[56]; Lykke et al.[60]; Lykke et al.[29]; cited from earlier work
[4] = tested on: mNKCC2 isoform A; parameters: method as in ref Payne et al.[57]; Isenring et al.[58]; Plata et al.[59]; Carota et al.[56]; Lykke et al.[60]; Lykke et al.[29]; conditions: Xenopus oocytes; ref Payne et al.[57]; Isenring et al.[58]; Plata et al.[59]; Carota et al.[56]; Lykke et al.[60]; Lykke et al.[29]; read-out: IC50 (µM) NKCC2 (mA); cited from earlier work
[5] = biological target: T1, hNKCC1A (Homo sapiens, UniProt P55011); parameters: method as in ref Payne et al.[57]; Isenring et al.[58]; Plata et al.[59]; Carota et al.[56]; Lykke et al.[60]; Lykke et al.[29]; conditions: Xenopus oocytes; activated state; ref Payne et al.[57]; Isenring et al.[58]; Plata et al.[59]; Carota et al.[56]; Lykke et al.[60]; Lykke et al.[29]; read-out: IC50 (µM) NKCC1 (hA); cited from earlier work
T1 construct: Full-length NKCC1 (NKCC1A) comprises ~1200 amino acids; expressed in transfected cells; host or cells: Xenopus laevis oocytes injected with cRNA (pXOOM vector)
T1 sequence (P55011 1-1212): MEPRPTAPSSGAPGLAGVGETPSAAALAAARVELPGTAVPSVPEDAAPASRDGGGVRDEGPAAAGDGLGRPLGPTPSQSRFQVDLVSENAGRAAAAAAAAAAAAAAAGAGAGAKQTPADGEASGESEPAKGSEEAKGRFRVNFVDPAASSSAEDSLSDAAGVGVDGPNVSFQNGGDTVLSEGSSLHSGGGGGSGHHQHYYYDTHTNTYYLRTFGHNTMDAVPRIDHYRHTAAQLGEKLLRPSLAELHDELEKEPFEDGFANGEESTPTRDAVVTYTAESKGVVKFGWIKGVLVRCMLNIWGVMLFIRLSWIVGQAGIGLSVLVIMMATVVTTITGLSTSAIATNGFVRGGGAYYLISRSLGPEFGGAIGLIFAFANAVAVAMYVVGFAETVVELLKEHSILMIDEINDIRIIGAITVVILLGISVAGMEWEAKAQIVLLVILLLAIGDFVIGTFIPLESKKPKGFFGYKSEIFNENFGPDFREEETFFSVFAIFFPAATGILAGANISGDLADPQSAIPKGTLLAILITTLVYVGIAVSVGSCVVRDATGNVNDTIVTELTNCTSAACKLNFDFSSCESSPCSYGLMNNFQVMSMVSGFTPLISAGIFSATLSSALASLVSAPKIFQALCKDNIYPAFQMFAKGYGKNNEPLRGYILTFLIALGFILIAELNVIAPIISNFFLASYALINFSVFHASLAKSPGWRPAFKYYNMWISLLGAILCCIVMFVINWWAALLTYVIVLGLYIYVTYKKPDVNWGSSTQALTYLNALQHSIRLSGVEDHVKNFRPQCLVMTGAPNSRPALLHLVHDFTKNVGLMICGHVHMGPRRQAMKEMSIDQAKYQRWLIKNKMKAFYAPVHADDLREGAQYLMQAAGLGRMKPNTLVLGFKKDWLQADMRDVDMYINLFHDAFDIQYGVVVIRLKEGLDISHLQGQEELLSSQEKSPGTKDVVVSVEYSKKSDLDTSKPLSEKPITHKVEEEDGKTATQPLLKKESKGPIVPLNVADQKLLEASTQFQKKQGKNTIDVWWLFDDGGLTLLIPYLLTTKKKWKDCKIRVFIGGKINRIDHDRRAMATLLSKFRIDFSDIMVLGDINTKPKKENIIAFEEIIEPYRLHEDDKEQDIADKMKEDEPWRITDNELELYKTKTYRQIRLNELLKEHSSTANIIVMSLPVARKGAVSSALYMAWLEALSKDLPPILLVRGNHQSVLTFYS

[6] = biological target: T1, hNKCC1A; assay: 86Rb+ uptake in hNKCC1A-expressing Xenopus laevis oocytes; type: cell-based; conditions: 86Rb+ uptake, Xenopus oocytes, 5 min, corrected for uninjected oocytes; median and range of 3–7 experiments
Method: The oocytes were kept in Kulori medium (in mM: 90 NaCl, 1 KCl, 1 CaCl2, 1 MgCl2, 5 Hepes, pH 7.4, 182 mOsm) for 5–6 days at 19 °C prior to experiments.
To activate NKCC1A and NKCC1B prior to the ^86Rb^+ uptake measurements aimed at measuring NKCC-mediated fluxes, hNKCC1A- or hNKCC1B-expressing oocytes or uninjected control oocytes (4–13 oocytes per well) were pre-incubated for 30 min at room temperature in a K^+-free solution (containing in mM: 5 choline chloride, 95 NaCl, 1 MgCl2, 1 CaCl2, 10 Hepes, pH 7.4, 207 mOsm), which causes shrinkage of the oocyte and thus activation of NKCC1A[22]. […] The radioactivity was determined by liquid scintillation β-counting with Aquasafe 300 Plus scintillation cocktail (Zinsser Analytic GmbH, Frankfurt, Germany) using a Microbeta Trilux (Perkin Elmer). hNKCC1-mediated K^+ uptake was assessed as ([fluxNKCC1-expressing oocytes in presence of x µM drug]−[fluxuninjected oocytes in presence of x µM drug]), in order to correct for endogenous NKCC activity. […]
Significance of differences in transport activity of hNKCC1A or hNKCC1B expressing oocytes vs. uninjected oocytes were analyzed by the Kruskal-Wallis test followed by Dunn’s multiple comparisons test. […]

[7] = tested on: NKCC2; parameters: method as in ref Palfrey et al.[48]; Schlatter et al.[23]; Frelin et al.[49]; O’Grady et al.[50]; Glanville et al.[51]; Hannaert et al.[52]; conditions: Rabbit kidney TAL; rat kidney TAL; NKCC2 isoforms not differentiated; ref Palfrey et al.[48]; Schlatter et al.[23]; Frelin et al.[49]; O’Grady et al.[50]; Glanville et al.[51]; Hannaert et al.[52]; cited from earlier work
[8] = tested on: hNKCC2 isoform F; conditions: Xenopus oocytes; ref Payne et al.[57]; Isenring et al.[58]; Plata et al.[59]; Carota et al.[56]; Lykke et al.[60]; Lykke et al.[29]; read-out: IC50 (µM) NKCC2 (hF); cited from earlier work
[9] = tested on: hNKCC1; parameters: method as in Gill et al.[47]; conditions: Rb+ flux, Ion Channel Reader technology, HEK cell line; ref Gill et al.[47]; cited from earlier work

For CCCCNc1cc(C(=O)O)cc(S(N)(=O)=O)c1Oc1ccccc1 [Bumetanide], the IC50 [1] is given as 3.4 µM, the IC50 [2] is given as 0.22 µM and the IC50 [3] is given as 0.16 to 0.28 µM. The IC50 [4] was 2 µM, the IC50 [5] was 0.68 µM and the IC50 [6] was 0.945 µM. For the same compound, the IC50 [7] was 0.2 to 0.33 µM, the IC50 [8] was 0.16 µM and the IC50 [9] was 1160 nM.
